target: T1, recombinant human MMP-13 (Homo sapiens, UniProt P45452); assay: Assay of MMP-13 inhibiting activity (fluorogenic peptide substrate); format: biochemical; details: Table 3; 37° C., 2 hours
T1 construct: made in house; host or cells: baculovirus (pBlueBac4 / Bac-N-Blue; virus made in Sf9), expressed in High-Five insect cells; culture supernatant used
Text: Based on the sequence described in the literature by Freije, J. M. et al (Journal of Biological Chemistry, 269: 16766-16773, 1994) and using a PCR method known per se, a human MMP-13 cDNA was obtained.
A pBlueBac4 (Invitrogen) and a Baculovirus vector Bac-N-Blue (Invitrogen) to each of which the human MMP-13 cDNA obtained above was integrated were co-transfected to an Sf9 cell to obtain a MMP-13-expressing recombinant virus.
The recombinant virus thus obtained was infected to a High-Five cell (Invitrogen), and the culture supernatant after three days was employed as an enzyme solution. Experiment 2 Assay of MMP-13 inhibiting activity
75 μl of a sample containing the recombinant human MMP-13, 200 mM sodium chloride, 20 mM calcium chloride, 0.1% Brij 35, 1 mM 2-mercaptoethanol, 200 mM tris-HCl buffer solution (pH7.5) and a test substance at various concentrations was treated with 25 μl of 40 μM MOCAc-Pro-Leu-Gly-Leu-A2pr(DNP)-Ala-Arg-NH2 (PEPTIDE KENKYUSHO) to initiate a reaction and kept at 37° C. for 2 hours, and then 100 μl of 500 mM sodium acetate-HCl buffer solution (pH3.0) was added to terminate the reaction.
The level of liberated MOCAc-Pro-Leu-Gly was determined using a fluorophotometer (MTP-32/F2: CORONA DENKI) at the excitation wavelength of 330 nm and the fluorescent wavelength of 405 nm. The fluorescent level of the reaction in the absence of a test substance was regarded as 100%, and the concentration of each test substance required for achieving 50% inhibition was indicated as IC50.

Row | IC50 | Molecule
1 | 2 nM | O=C(SC1CC(=O)N(Cc2ccc(Oc3ccccc3)cc2)C1)c1ccccc1 (centres unmarked) [Example 16, 4-Benzoylthio-1-(4-phenoxybenzyl)pyrrolidin-2-one]
2 | 30 nM | CC(C)(C)C(=O)OCSC1CC(=O)N(Cc2ccc(Oc3ccccc3)cc2)C1 (centres unmarked) [Example 18, 4-Pivaloyloxymethylthio-1-(4-phenoxybenzyl)pyrrolidin-2-one]
3 | 5000 nM | O=C1C[C@@H](SCCO)CN1Cc1ccc(Oc2ccccc2)cc1 [Example 90, (4R)-4-[(2-Hydroxyethyl)sulfanyl)-1-(4-phenoxybenzyl)-2-pyrrolidinone]
4 | 10 nM | CC(=O)SC1CC(=O)N(Cc2ccc(Oc3ccccc3)cc2)C1 (centres unmarked) [Example 15, 4-Acetylthio-1-(4-phenoxybenzyl)pyrrolidin-2-one]
5 | 50 nM | CCOC(=O)CSS[C@@H]1CC(=O)N(Cc2ccc(Oc3ccccc3)cc2)C1 [Example 82]
6 | 1000 nM | CC(C)(C)SS[C@@H]1CC(=O)N(Cc2ccc(Oc3ccccc3)cc2)C1 [Example 81, (4R)-4-(t-Butyldisulfanyl)-1-(4-phenoxybenzyl)-2-pyrrolidinone]
7 | 0.9 nM | CCOC(=O)CCNC(=O)S[C@@H]1CC(=O)N(Cc2ccc(Oc3ccccc3)cc2)C1 [Example 60, Ethyl [({[(3R)-5-oxo-1-(4-phenoxybenzyl)pyrrolidinyl]sulfanyl}carbonyl)amino]propanoate]
8 | 1 nM | CCNC(=O)S[C@@H]1CC(=O)N(Cc2ccc(Oc3ccccc3)cc2)C1 [Example 51, S-[(3R)-5-oxo-1-(4-phenoxybenzyl)pyrrolidinyl]ethylthiocarbamate]
9 | 2 nM | O=C(O)CNC(=O)S[C@@H]1CC(=O)N(Cc2ccc(Oc3ccccc3)cc2)C1 [Example 59, [({[(3R)-5-Oxo-1-(4-phenoxybenzyl)pyrrolidinyl]sulfanyl}carbonyl)amino]acetic acid]
10 | 2000 nM | O=C1CC(SCCS(=O)(=O)c2ccccc2)CN1Cc1ccc(Oc2ccccc2)cc1 (centres unmarked) [Example 97, 1-(4-phenoxybenzyl)-4-{[2-(phenylsulfonyl)ethyl]sulfanyl}-2-pyrrolidinone]
11 | 300 nM | O=C1C[C@H](S)CN1Cc1ccc(Oc2ccccc2)cc1 [Example 22, (S)-4-Mercapto-1-(4-phenoxybenzyl)pyrrolidin-2-one]
12 | 100 nM | O=C(NCS[C@@H]1CC(=O)N(Cc2ccc(Oc3ccccc3)cc2)C1)c1ccccc1 [Example 102, N-({[(3R)-5-oxo-1-(4-phenoxybenzyl)pyrrolidinyl]sulfanyl}methyl)benzamide]

Row | Molecule | IC50
13 | O=C(Cc1ccccc1)SC1CC(=O)N(Cc2ccc(Oc3ccccc3)cc2)C1 (stereo not drawn) [Example 68, S-[5-oxo-1-(4-phenoxybenzyl)-3-pyrrolidinyl]2-phenylethanethioate] | 2 nM

same assay, conditions: Table 5; 37° C., 2 hours

Row | Molecule | IC50
14 | CC(=O)S[C@@H]1CC(=O)N(Cc2ccc(Oc3ccccc3)cc2)[C@H]1Cc1ccccc1 (relative stereo) [Example 181, trans-4-Acetylthio-5-benzyl-1-(4-phenoxybenzyl)pyrrolidin-2-one] | 8 nM
15 | CCCNC(=O)OC[C@H]1[C@H](SC(C)=O)CC(=O)N1Cc1ccc(Oc2ccccc2)cc1 (relative stereo) [Example 183, trans-4-Acetylthio-5-propylaminocarbonyloxymethyl-1-(4-phenoxybenzyl)pyrrolidin-2-one] | 20 nM
16 | CCOC(=O)CNC(=O)[C@H]1[C@H](SC(C)=O)CC(=O)N1Cc1ccc(Oc2ccccc2)cc1 (relative stereo) [Example 186, trans-4-Acetylthio-5-ethoxycarbonylmethylaminocarbonyl-1-(4-phenoxybenzyl)pyrrolidin-2-one] | 50 nM

Next, values leading:

Row | IC50 | Molecule
17 | 20 nM | CC(C)C[C@H]1[C@H](S)CC(=O)N1Cc1ccc(Oc2ccccc2)cc1 (relative stereo) [Example 180, trans-5-Isobutyl-4-mercapto-1-(4-phenoxybenzyl)pyrrolidin-2-one]
18 | 9 nM | CC(=O)S[C@@H]1CC(=O)N(Cc2ccc(Oc3ccccc3)cc2)[C@H]1CC(C)C (relative stereo) [Example 179, trans-4-Acetylthio-5-isobutyl-1-(4-phenoxybenzyl)pyrrolidin-2-one]

same assay, conditions: Table 7; 37° C., 2 hours

Row | IC50 | Molecule
19 | 200 nM | O=C1CC(SSC2CC(=O)N(Cc3ccc(Oc4ccccc4)cc3)C2)CN1Cc1ccc(Oc2ccccc2)cc1 (centres unmarked) [Example 19, 4,4′-Dithiobis[1-(4-phenoxybenzyl)pyrrolidin-2-one]]
20 | > 10000 nM | O=C1CC(CSSCC2CC(=O)N(Cc3ccc(Oc4ccccc4)cc3)C2=O)C(=O)N1Cc1ccc(Oc2ccccc2)cc1 (centres unmarked) [Example 13, 3,3′-[Dithiobis(methylene)]bis[1-(4-phenoxybenzyl)pyrrolidine-2,5-dione]]
21 | 9 nM | O=C1CC(SSC2CC(=O)N(Cc3ccc(Oc4ccccc4)cc3)C2=O)C(=O)N1Cc1ccc(Oc2ccccc2)cc1 (centres unmarked) [Example 12]

same assay, conditions: Table 9; 37° C., 2 hours

Row | Molecule | IC50
22 | CC(=O)SC1CC(=O)N(Cc2ccc(Oc3ccccc3)c([N+](=O)[O-])c2)C1 (centres unmarked) [Example 151, 4-Acetylthio-1-(3-nitro-4-phenoxybenzyl)pyrrolidin-2-one] | > 10000 nM
23 | CC(=O)SC1CC(=O)N(Cc2ccc(Oc3ccc(C(F)(F)F)cc3)cc2)C1 (centres unmarked) [Example 129, 4-Acetylthio-1-[4-(4′-(trifluoromethyl)phenoxy)benzyl]pyrrolidin-2-one] | 30 nM
24 | CC(=O)SC1CC(=O)N(Cc2ccc(Oc3ccc(C(=O)O)cc3)cc2)C1 (centres unmarked) [Example 133, 4-Acetylthio-1-[4-(4′-carboxyphenoxy)benzyl]pyrrolidin-2-one] | > 10000 nM
25 | CCOc1ccc(Oc2ccc(CN3CC(SC(C)=O)CC3=O)cc2)cc1 (centres unmarked) [Example 138, 4-Acetylthio-1-[4-(4′-ethoxyphenoxy)benzyl]pyrrolidin-2-one] | 20 nM

The remaining lines, values ahead:

Row | IC50 | Molecule
26 | 10 nM | CC(=O)SC1CC(=O)N(Cc2ccc(Oc3ccc(Br)cc3)cc2)C1 (centres unmarked) [Example 34, 4-Acetylthio-1-(4-(4′-bromophenoxy)benzyl)pyrrolidin-2-one]
27 | 4000 nM | CS(=O)(=O)Nc1cc(CN2CC(S)CC2=O)ccc1Oc1ccccc1 (centres unmarked) [Example 153, 4-Mercapto-1-(3-methylsulfonylamino-4-phenoxybenzyl)pyrrolidin-2-one]
28 | 7 nM | CC(=O)S[C@@H]1CC(=O)N(Cc2ccc(Oc3ccc(F)cc3)cc2)C1 [Example 117, (R)-4-Acethylthio-1-[4-(4′-fluorophenoxy)benzyl]pyrrolidin-2-one]
29 | 9.2 nM | NC(=O)c1ccc(Oc2ccc(CN3CC(S)CC3=O)cc2)cc1 (centres unmarked) [Example 135, 4-Mercapto-1-[4-(4′-aminocarbonylphenoxy)benzyl]pyrrolidin-2-one]
30 | 2 nM | O=C1C[C@@H](S)CN1Cc1ccc(Oc2ccc(Br)cc2)cc1 [Example 200, (R)-4-Mercapto-1-[4-(4′-bromophenoxy)benzyl]pyrrolidin-2-one]

same assay, conditions: Table 10; 37° C., 2 hours

Row | IC50 | Molecule
31 | 500 nM | CC(=O)SC1CC(=O)N(Cc2ccc(COc3ccccc3)cc2)C1 (centres unmarked) [Example 163, 4-Acetylthio-1-(4-phenoxymethylbenzyl)pyrrolidin-2-one]
32 | 90 nM | O=C1CC(S)CN1Cc1ccc(Cc2ccccc2)cc1 (centres unmarked) [Example 160, 4-Mercapto-1-(4-benzylbenzyl)pyrrolidin-2-one]
33 | 400 nM | CC(=O)SC1CC(=O)N(Cc2ccc(CCc3ccccc3)cc2)C1 (centres unmarked) [Example 167, 4-Acetylthio-1-(4-phenethylbenzyl)pyrrolidin-2-one]
34 | 80 nM | O=C1CC(S)CN1Cc1ccc(COc2ccccc2)cc1 (centres unmarked) [Example 164, 4-Mercapto-1-(4-phenoxymethylbenzyl)pyrrolidin-2-one]

same assay, conditions: Table 11; 37° C., 2 hours

Row | IC50 | Molecule
35 | > 10000 nM | CC(=O)SC1CC(=O)N(CC2CCN(C(=O)c3ccccc3)CC2)C1 (centres unmarked) [Example 193, 4-Acetylthio-1-[(1-benzoyl-4-piperidyl)methyl]pyrrolidin-2-one]
36 | 12 nM | CC(=O)S[C@@H]1CC(=O)N(Cc2ccc(Oc3ccc4c(c3)OCO4)cc2)C1 [Example 198, S-{(3R)-1-{4-(1,3-benzodioxol-5-yloxy)benzyl]-5-oxopyrrolidinyl}ethanethioate]
37 | 4 nM | O=C1CC(S)CN1Cc1ccc(Oc2ccsc2)cc1 (centres unmarked) [Example 158, 4-Mercapto-1-[4-(3′-thienyloxy)benzyl]pyrrolidin-2-one]
38 | 3900 nM | Cc1ccc(S(=O)(=O)N(c2ccccc2)c2ccc(CN3CC(S)CC3=O)cc2)cc1 (centres unmarked) [Example 204, 4-Mercapto-1-[4-(N-phenyl-N-p-toluenesulfonylamino)benzyl]pyrrolidin-2-one]

same assay, conditions: Table 12; 37° C., 2 hours

Row | Molecule | IC50
39 | CC(=O)SC1CCC(=O)N(Cc2ccc(Oc3ccccc3)cc2)C1 (stereo not drawn) [Example 108, S-[6-Oxo-1-(4-phenoxybenzyl)-3-piperidinyl]ethanethioate] | 300 nM
40 | S-[2-Oxo-1-(4-phenoxybenzyl)-4-piperidinyl]ethanethioate [Example 110] | 250 nM

same assay, conditions: Table 13; 37° C., 2 hours

Row | IC50 | Molecule
41 | 20 nM | CC(=O)SC1CCC(=O)N(Cc2ccc(Oc3ccc(Br)cc3)cc2)C1=O (centres unmarked) [Example 43, 3-Acetylthio-1-[4-(4-bromophenoxy)benzyl]piperidine-2,6-dione]
